# Results published in patent US9682995B2, “Amino-substituted isothiazoles” (BAYER PHARMA AKTIENGESELLSCHAFT, priority 2013, dated 2017).
# Tests used:
# Assay in all cases: Kinase Profiling (KINOMEscan)
# Assay type in all cases: binding
# [1] = target: 456 kinases (of these 395 non-mutant kinases) (Homo sapiens, UniProt Q16620); conditions: TRKB; 10 μM
# [2] = target: 456 kinases (of these 395 non-mutant kinases) (Homo sapiens, UniProt P00519, E255K); conditions: ABL1(E255K)-phosphorylated; 10 μM
# [3] = target: 456 kinases (of these 395 non-mutant kinases) (Homo sapiens, UniProt Q86V86); conditions: PIM3; 10 μM
# [4] = target: 456 kinases (of these 395 non-mutant kinases) (Homo sapiens, UniProt Q86YV6); conditions: MYLK4; 10 μM
# [5] = target: 456 kinases (of these 395 non-mutant kinases) (Homo sapiens, UniProt P08631); conditions: HCK; 10 μM
# [6] = target: 456 kinases (of these 395 non-mutant kinases) (Homo sapiens, UniProt P19784); conditions: CSNK2A2; 10 μM
# [7] = target: 456 kinases (of these 395 non-mutant kinases) (Homo sapiens, UniProt Q9BVS4); conditions: RIOK2; 10 μM
# [8] = target: 456 kinases (of these 395 non-mutant kinases) (Homo sapiens, UniProt O14965); conditions: AURKA; 10 μM
# [9] = target: 456 kinases (of these 395 non-mutant kinases) (Homo sapiens, UniProt Q00535); conditions: CDK5; 10 μM
# [10] = target: 456 kinases (of these 395 non-mutant kinases) (Homo sapiens, UniProt P36896); conditions: ACVR1B; 10 μM
# [11] = target: 456 kinases (of these 395 non-mutant kinases) (Homo sapiens, UniProt P22607, G697C); conditions: FGFR3(G697C); 10 μM
# [12] = target: 456 kinases (of these 395 non-mutant kinases) (Homo sapiens, UniProt O75716); conditions: STK16; 10 μM
# [13] = target: 456 kinases (of these 395 non-mutant kinases) (Homo sapiens, UniProt Q08881); conditions: ITK; 10 μM
# [14] = target: 456 kinases (of these 395 non-mutant kinases) (Homo sapiens, UniProt O00444); conditions: PLK4; 10 μM
# [15] = target: 456 kinases (of these 395 non-mutant kinases) (Homo sapiens, UniProt P36888, D835Y); conditions: FLT3(D835Y); 10 μM
# [16] = target: 456 kinases (of these 395 non-mutant kinases) (Homo sapiens, UniProt P36894); conditions: BMPR1A; 10 μM
# [17] = target: 456 kinases (of these 395 non-mutant kinases) (Homo sapiens, UniProt Q8WU08); conditions: YANK1; 10 μM
# [18] = target: 456 kinases (of these 395 non-mutant kinases) (Homo sapiens, UniProt P49336); conditions: CDK8; 10 μM
# [19] = target: 456 kinases (of these 395 non-mutant kinases) (Homo sapiens, UniProt Q86UX6); conditions: YANK3; 10 μM
# [20] = target: 456 kinases (of these 395 non-mutant kinases) (Homo sapiens, UniProt Q9NRH2); conditions: SNRK; 10 μM
# [21] = target: 456 kinases (of these 395 non-mutant kinases) (Homo sapiens, UniProt Q00532); conditions: CDKL1; 10 μM
# [22] = target: 456 kinases (of these 395 non-mutant kinases) (Homo sapiens, UniProt P07947); conditions: YES; 10 μM
# [23] = target: 456 kinases (of these 395 non-mutant kinases) (Homo sapiens, UniProt P31152); conditions: ERK4; 10 μM
# [24] = target: 456 kinases (of these 395 non-mutant kinases) (Homo sapiens, UniProt Q9Y463); conditions: DYRK1B; 10 μM
# [25] = target: 456 kinases (of these 395 non-mutant kinases) (Homo sapiens, UniProt Q9NYL2); conditions: ZAK; 10 μM
# [26] = target: 456 kinases (of these 395 non-mutant kinases) (Homo sapiens, UniProt O15111); conditions: IKK-alpha; 10 μM
# [27] = target: 456 kinases (of these 395 non-mutant kinases) (Homo sapiens, UniProt P24723); conditions: PRKCH; 10 μM
# [28] = target: 456 kinases (of these 395 non-mutant kinases) (Homo sapiens, UniProt Q9UPE1); conditions: SRPK3; 10 μM
# [29] = target: 456 kinases (of these 395 non-mutant kinases) (Homo sapiens, UniProt P22607); conditions: FGFR3; 10 μM
# [30] = target: 456 kinases (of these 395 non-mutant kinases) (Homo sapiens, UniProt P41240); conditions: CSK; 10 μM
# [31] = target: 456 kinases (of these 395 non-mutant kinases) (Homo sapiens, UniProt P04626); conditions: ERBB2; 10 μM
# [32] = target: 456 kinases (of these 395 non-mutant kinases) (Homo sapiens, UniProt Q5VT25); conditions: MRCKA; 10 μM
# Sequence of 456 kinases (of these 395 non-mutant kinases) (Homo sapiens, UniProt P22607) (P22607 23-806 limits assumed, change not shown): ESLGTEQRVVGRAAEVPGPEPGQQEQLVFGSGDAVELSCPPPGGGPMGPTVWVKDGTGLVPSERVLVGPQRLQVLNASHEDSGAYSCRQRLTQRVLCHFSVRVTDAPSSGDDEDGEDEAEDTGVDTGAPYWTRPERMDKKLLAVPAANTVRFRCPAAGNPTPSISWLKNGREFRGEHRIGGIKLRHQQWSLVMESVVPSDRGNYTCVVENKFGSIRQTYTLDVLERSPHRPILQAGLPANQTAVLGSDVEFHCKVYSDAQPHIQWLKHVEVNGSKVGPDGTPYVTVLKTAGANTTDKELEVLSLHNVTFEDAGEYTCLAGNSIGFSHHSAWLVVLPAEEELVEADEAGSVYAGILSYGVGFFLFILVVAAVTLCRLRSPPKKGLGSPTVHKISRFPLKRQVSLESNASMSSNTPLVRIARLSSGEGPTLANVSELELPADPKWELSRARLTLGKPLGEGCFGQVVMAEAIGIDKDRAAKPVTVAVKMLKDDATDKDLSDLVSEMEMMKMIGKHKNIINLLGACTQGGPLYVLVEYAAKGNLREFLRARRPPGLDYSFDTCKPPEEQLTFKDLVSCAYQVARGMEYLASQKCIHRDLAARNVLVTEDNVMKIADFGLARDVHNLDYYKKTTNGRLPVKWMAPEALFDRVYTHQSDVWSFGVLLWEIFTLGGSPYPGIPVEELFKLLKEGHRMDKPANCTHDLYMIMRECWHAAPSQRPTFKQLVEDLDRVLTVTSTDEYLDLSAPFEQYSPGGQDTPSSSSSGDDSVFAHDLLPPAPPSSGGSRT
# Sequence of 456 kinases (of these 395 non-mutant kinases) (Homo sapiens, UniProt P08631) (P08631 2-526 limits assumed, change not shown): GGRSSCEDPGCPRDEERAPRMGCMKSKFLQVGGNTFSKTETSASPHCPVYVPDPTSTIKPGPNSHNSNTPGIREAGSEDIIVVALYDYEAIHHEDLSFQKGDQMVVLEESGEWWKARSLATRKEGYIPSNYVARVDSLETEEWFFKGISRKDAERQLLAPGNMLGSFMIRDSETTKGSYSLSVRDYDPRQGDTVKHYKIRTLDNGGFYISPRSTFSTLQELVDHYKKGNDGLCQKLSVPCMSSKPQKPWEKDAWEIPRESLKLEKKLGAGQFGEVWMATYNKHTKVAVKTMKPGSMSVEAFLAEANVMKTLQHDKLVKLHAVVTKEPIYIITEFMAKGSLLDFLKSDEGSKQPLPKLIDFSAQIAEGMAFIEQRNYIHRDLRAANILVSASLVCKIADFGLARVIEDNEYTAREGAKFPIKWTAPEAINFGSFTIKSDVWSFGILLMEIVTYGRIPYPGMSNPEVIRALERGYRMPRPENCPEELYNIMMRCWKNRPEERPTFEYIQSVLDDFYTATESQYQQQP
# Sequence of 456 kinases (of these 395 non-mutant kinases) (Homo sapiens, UniProt O75716) (O75716 2-305 limits assumed, change not shown): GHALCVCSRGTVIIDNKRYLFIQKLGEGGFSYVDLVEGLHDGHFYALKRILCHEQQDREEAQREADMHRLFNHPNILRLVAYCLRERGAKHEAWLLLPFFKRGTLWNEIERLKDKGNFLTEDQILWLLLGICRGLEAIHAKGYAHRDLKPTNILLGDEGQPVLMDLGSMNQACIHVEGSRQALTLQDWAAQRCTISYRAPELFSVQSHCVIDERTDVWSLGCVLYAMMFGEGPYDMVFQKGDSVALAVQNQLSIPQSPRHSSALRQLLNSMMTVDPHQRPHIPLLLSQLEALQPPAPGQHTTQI
# Sequence of 456 kinases (of these 395 non-mutant kinases) (Homo sapiens, UniProt P07947) (P07947 2-543 limits assumed, change not shown): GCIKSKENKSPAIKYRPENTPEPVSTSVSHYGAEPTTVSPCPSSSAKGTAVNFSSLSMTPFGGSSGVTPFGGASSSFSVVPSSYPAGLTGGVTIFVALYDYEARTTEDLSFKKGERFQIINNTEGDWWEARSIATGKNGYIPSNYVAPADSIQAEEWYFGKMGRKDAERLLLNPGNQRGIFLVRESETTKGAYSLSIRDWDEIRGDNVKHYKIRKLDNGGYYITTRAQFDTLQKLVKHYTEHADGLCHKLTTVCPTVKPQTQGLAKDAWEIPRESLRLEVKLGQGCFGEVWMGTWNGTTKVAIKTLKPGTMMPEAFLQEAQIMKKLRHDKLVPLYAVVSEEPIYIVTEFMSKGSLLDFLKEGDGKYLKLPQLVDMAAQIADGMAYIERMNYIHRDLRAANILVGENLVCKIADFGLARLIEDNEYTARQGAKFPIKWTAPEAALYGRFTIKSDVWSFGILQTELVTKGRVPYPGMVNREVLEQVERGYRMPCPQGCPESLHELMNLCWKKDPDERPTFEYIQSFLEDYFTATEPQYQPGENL
# Sequence of 456 kinases (of these 395 non-mutant kinases) (Homo sapiens, UniProt P22607, G697C) (P22607 23-806 G697C limits assumed): as the sequence (P22607 23-806 limits assumed, change not shown) above, with G675C counted along it
# Sequence of 456 kinases (of these 395 non-mutant kinases) (Homo sapiens, UniProt P04626) (P04626 23-1255 limits assumed, change not shown): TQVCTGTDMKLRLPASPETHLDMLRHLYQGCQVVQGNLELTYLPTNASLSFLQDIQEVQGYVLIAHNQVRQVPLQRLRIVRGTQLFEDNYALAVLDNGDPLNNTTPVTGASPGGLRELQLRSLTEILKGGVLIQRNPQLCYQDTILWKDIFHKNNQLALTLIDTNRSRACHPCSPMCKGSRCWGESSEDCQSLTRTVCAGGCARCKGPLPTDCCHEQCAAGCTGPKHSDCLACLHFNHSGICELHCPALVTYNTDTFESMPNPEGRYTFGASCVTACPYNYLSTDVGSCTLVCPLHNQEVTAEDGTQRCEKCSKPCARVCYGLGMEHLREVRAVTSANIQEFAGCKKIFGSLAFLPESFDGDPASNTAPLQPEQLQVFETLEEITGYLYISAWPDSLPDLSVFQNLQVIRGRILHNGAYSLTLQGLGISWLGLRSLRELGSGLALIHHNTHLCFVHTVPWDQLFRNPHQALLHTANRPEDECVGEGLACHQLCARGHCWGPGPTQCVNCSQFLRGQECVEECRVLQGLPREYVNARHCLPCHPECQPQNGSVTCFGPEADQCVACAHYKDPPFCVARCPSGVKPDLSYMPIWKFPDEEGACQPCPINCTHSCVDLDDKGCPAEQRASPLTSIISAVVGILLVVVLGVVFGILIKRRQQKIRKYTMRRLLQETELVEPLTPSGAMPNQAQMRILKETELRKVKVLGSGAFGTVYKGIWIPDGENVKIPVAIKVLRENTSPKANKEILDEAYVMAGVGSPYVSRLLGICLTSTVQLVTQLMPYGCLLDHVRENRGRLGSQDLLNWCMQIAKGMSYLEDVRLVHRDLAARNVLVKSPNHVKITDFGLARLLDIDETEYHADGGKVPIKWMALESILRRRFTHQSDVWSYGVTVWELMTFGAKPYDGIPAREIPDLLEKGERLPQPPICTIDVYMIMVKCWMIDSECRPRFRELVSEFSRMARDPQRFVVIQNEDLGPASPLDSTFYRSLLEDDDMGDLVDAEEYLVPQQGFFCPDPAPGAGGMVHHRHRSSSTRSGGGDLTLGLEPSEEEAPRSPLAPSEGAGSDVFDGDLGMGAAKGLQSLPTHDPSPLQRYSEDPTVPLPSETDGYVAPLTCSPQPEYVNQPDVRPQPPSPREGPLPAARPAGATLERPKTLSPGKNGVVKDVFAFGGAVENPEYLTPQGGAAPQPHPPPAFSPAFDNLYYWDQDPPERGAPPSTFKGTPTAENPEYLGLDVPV
# Sequence of 456 kinases (of these 395 non-mutant kinases) (Homo sapiens, UniProt Q8WU08) (Q8WU08 2-396 limits assumed, change not shown): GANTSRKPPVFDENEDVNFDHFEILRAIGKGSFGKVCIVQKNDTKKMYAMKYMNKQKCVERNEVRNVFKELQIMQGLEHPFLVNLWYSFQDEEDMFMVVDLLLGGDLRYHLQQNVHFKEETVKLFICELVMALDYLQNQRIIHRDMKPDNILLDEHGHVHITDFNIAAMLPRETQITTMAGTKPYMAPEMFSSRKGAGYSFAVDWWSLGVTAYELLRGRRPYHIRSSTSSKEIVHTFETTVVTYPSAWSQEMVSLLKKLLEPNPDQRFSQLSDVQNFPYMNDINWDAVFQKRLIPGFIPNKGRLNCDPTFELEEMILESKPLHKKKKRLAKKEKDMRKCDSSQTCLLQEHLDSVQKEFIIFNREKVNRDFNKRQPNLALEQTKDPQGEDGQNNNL
# Sequence of 456 kinases (of these 395 non-mutant kinases) (Homo sapiens, UniProt P41240) (P41240 2-450 limits assumed, change not shown): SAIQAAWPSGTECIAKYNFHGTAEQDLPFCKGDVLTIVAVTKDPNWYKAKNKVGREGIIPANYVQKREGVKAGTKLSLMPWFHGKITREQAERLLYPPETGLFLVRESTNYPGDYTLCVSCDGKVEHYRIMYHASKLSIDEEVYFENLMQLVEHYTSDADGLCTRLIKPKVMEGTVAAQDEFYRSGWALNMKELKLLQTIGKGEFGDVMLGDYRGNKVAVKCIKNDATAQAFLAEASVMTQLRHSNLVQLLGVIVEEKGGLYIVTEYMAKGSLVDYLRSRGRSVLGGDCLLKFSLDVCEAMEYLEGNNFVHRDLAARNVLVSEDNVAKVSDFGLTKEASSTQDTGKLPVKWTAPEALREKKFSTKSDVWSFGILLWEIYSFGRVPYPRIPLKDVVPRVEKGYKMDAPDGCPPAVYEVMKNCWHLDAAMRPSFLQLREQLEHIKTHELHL
smiles,measurement,setting,value
"CCc1ccccc1NC(=O)c1c(C)nsc1Nc1cnc2cc(F)ccc2n1 [Example 20, N-(2-Ethylphenyl)-5-[(6-fluoroquinoxalin-2-yl)amino]-3-methyl-1,2-thiazole-4-carboxamide]",% Ctrl @ 10 μM,[1],90 % Ctrl
same,% Ctrl @ 10 μM,[2],100 % Ctrl
same,% Ctrl @ 10 μM,[3],100 % Ctrl
same,% Ctrl @ 10 μM,[4],100 % Ctrl
same,% Ctrl @ 10 μM,[5],59 % Ctrl
same,% Ctrl @ 10 μM,[6],100 % Ctrl
same,% Ctrl @ 10 μM,[7],77 % Ctrl
same,% Ctrl @ 10 μM,[8],100 % Ctrl
same,% Ctrl @ 10 μM,[9],100 % Ctrl
same,% Ctrl @ 10 μM,[10],100 % Ctrl
same,% Ctrl @ 10 μM,[11],87 % Ctrl
same,% Ctrl @ 10 μM,[12],100 % Ctrl
same,% Ctrl @ 10 μM,[13],100 % Ctrl
same,% Ctrl @ 10 μM,[14],100 % Ctrl
same,% Ctrl @ 10 μM,[15],100 % Ctrl
same,% Ctrl @ 10 μM,[16],100 % Ctrl
same,% Ctrl @ 10 μM,[17],100 % Ctrl
same,% Ctrl @ 10 μM,[18],100 % Ctrl
same,% Ctrl @ 10 μM,[19],67 % Ctrl
same,% Ctrl @ 10 μM,[20],100 % Ctrl
same,% Ctrl @ 10 μM,[21],100 % Ctrl
same,% Ctrl @ 10 μM,[22],90 % Ctrl
same,% Ctrl @ 10 μM,[23],88 % Ctrl
same,% Ctrl @ 10 μM,[24],100 % Ctrl
same,% Ctrl @ 10 μM,[25],78 % Ctrl
same,% Ctrl @ 10 μM,[26],84 % Ctrl
same,% Ctrl @ 10 μM,[27],100 % Ctrl
same,% Ctrl @ 10 μM,[28],87 % Ctrl
same,% Ctrl @ 10 μM,[29],85 % Ctrl
same,% Ctrl @ 10 μM,[30],100 % Ctrl
same,% Ctrl @ 10 μM,[31],77 % Ctrl
same,% Ctrl @ 10 μM,[32],92 % Ctrl
